In ChEMBL document CHEMBL1201862, “PubChem BioAssay data set” (2004):
Calls of active or inactive are those of the source.

How the values were obtained:
[1] = tested on: INS1; test: INS-1E survival protection against cytokine death – cell-based, luminescence, retest, dose response (AID 449756); assay type: functional; settings: Rattus norvegicus;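 note: cell death triggered by IL-1 beta plus TNF-alpha plus IFN-gamma mixture; protective hits raise ATP signal compared with cytokine alone wells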
[2] = reduction of Shn3 3'UTR-driven luciferase in osteoblasts – cell-based, Clone20 osteoblasts, firefly luciferase, cherry-picked, dose response (AID 624132); assay type: functional;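 note: firefly luciferase luminescence from reporter carrying the Shn3 3'UTR in osteoblasts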
[3] = loss of viability in HepG2 cells – cell-based, CellTiter-Glo, cherry-picked, cytotoxicity control for Shn3 inhibitor project, dose response (AID 624134); assay type: functional
[4] = Shn3 3'UTR reporter signal decrease – cell-based, Clone20 osteoblasts, firefly luciferase, cherry-pick, set 2, Schnurri-3 inhibitor project, dose response (AID 720490); assay type: functional;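 note: actives lower the luminescence signal as inhibitors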
[5] = EF1alpha-driven Renilla reporter with control 3'UTR suppression – Clone20-Shn3RL cells, dual-Glo, cherry-pick, set 2, counter-screen for Shn3 3'UTR targeting project, dose response (AID 720724); assay type: functional, cell-based; settings: Dual-Go Shn3RL
[6] = target: Melanocortin receptor 4 (Homo sapiens, UniProt P32245); assay type: functional, cell-based;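 note: Cell-based assay with luminescence read-out, confirmatory dose-response testing for agonist activity of biased ligands at MC4R; human U2OS cells with tagged receptor and beta-arrestin; potency of agonists that increase receptor coupling to beta-arrestin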
[7] = target: SWI/SNF-related matrix-associated actin-dependent regulator of chromatin subfamily A member 2 (Homo sapiens, UniProt P51531); test: Luminescence-based cell-based high throughput dose response assay to identify activators of the function of SWI/SNF related, matrix associated, actin dependent regulator of chromatin, subfamily a, member 2 (SMARCA2, BRM).; assay type: functional
[8] = Counterscreen for activators of the function of SWI/SNF related, matrix associated, actin dependent regulator of chromatin, subfamily a, member 2 (SMARCA2, BRM): Luminescence-based cell-based high throughput dose response assay to identify non-selective compounds using the VP16 reporter assay.; assay type: functional
[9] = target: T1, DNA repair protein RAD52 homolog (Homo sapiens, UniProt P43351); assay type: functional, biochemical
T1 sequence (P43351 whole entry): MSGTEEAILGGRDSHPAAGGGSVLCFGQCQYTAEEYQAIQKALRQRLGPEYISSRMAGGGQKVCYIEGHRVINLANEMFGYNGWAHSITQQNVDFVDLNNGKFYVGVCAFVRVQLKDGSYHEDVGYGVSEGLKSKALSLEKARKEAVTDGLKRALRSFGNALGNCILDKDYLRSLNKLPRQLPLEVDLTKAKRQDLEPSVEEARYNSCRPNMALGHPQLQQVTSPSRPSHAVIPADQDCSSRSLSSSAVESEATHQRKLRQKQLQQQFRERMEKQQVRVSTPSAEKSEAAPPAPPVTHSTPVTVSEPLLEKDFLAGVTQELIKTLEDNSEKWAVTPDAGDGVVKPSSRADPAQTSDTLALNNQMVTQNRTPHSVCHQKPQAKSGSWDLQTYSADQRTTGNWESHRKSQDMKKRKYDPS

[10] = target: Mu-type opioid receptor (Homo sapiens, UniProt P35372); assay type: functional, cell-based;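 note: U2OS cells with beta-arrestin recruitment to OPRM1 by beta-gal complementation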
[11] = target: 5-hydroxytryptamine receptor 2A (Mus musculus, UniProt P35363); assay type: functional, cell-based;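 note: CHO-K1 cells with tagged receptor and beta-arrestin; agonist potency measured as compound-induced activation of the receptor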
[12] = microbe, parasite or virus in culture; assay type: functional; settings: Mycobacterium tuberculosis
[13] = cells; settings: A549
[14] = cells; settings: HEK293
[15] = target: T2, Microphthalmia-associated transcription factor (Homo sapiens, UniProt O75030); test: reducers of TRPM1 reporter luminescence, concentration series – cell-based, SK-MEL-5, cherry-picked, set 3, MITF inhibitor project, dose response (AID 493073); assay type: functional;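 note: SK-MEL-5 melanoma cells with luciferase driven by the MITF target TRPM1 promoter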
T2 sequence (O75030 whole entry): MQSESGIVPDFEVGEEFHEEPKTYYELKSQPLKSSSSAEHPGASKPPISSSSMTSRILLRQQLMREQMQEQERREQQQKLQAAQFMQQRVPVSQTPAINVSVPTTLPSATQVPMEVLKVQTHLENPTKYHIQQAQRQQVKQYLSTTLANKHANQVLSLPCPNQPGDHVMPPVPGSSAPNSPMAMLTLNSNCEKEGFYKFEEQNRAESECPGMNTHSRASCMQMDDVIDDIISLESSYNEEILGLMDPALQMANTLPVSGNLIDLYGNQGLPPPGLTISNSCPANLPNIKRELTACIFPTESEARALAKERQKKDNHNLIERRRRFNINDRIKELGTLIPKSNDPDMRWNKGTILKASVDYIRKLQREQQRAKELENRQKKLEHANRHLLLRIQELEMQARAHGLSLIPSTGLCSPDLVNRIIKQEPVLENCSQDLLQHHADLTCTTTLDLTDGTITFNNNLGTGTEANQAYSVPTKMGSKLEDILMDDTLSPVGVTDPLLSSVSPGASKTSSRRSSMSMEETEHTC

[16] = target: T3, Insulin-degrading enzyme (Homo sapiens, UniProt P14735); test: recombinant IDE activation, cell-free – biochemical, fluorescence polarization, counter-screen for IDE activator project, dose response (AID 588681)
T3 sequence (P14735 whole entry): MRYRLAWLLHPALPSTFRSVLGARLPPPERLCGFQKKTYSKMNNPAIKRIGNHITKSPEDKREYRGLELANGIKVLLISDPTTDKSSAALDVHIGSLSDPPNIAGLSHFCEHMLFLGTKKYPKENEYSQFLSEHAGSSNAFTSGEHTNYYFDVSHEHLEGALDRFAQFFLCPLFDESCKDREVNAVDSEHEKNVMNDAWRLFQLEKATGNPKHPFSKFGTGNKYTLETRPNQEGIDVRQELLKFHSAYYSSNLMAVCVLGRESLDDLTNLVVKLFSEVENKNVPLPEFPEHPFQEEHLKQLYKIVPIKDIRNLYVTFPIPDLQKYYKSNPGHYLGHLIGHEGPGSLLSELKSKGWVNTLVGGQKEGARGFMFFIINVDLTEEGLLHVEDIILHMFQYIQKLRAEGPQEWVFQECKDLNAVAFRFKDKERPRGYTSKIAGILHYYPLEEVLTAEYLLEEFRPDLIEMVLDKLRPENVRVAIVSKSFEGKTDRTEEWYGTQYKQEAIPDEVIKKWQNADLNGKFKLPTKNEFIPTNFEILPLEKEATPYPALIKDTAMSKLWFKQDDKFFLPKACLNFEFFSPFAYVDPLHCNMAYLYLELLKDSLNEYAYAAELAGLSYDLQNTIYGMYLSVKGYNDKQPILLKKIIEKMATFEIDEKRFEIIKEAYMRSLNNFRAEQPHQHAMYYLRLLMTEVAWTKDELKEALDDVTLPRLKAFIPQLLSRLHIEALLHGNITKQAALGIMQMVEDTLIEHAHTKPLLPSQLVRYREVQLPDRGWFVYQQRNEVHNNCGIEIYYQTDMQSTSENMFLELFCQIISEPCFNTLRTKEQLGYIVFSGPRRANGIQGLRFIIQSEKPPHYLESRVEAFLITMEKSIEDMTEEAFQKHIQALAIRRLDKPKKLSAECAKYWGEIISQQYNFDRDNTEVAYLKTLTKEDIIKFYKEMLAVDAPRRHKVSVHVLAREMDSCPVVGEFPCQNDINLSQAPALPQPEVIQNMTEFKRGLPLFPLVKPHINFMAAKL

[17] = target: T3, Insulin-degrading enzyme; test: cellular IDE activation of Abeta substrate cleavage – fluorescence polarization, HEK cells, dose response (AID 588439); assay type: functional, cell-based
[18] = tested on: A-375; test: MITF: Counter assay: A375 proliferation Measured in Cell-Based System Using Plate Reader - 2084-03_Inhibitor_Dose_DryPowder_Activity. [Related pubchem assays (depositor defined):AID488944]; assay type: functional; settings: Homo sapiens
[19] = tested on: HEK293; test: membrane integrity loss in HEK cells – cell-based, fluorescence, cytotoxicity control for IDE activator project, dose response (AID 588440); assay type: functional; settings: Homo sapiens;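 note: cytotoxicity by LDH release measuring loss of membrane integrity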
[20] = tested on: HEK293; test: optical interference in Abeta FP readout, dose response, artefact control for IDE activator project, biochemical, fluorescence polarization (AID 588442); assay type: functional, cell-based; settings: Homo sapiens
[21] = viability loss in HEK293T cells – cell-based, cherry-picks, cytotoxicity control for HIV Vif inhibitor project, dose response (AID 652208); assay type: functional
[22] = target: Protein disulfide-isomerase (Homo sapiens, UniProt P07237); test: inhibition of PDI-mediated insulin reduction – biochemical, turbidity, dry powder samples, set 2, confirmation (AID 652146)
[23] = HeLa cell viability loss – 24 h, dry powder, set 2, cytotoxicity control, dose response (AID 651774); assay type: functional, cell-based
[24] = potency of ADAM10 substrate cleavage blockers – biochemical, QFRET, dose response (AID 743254);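 note: ADAM10 enzyme with the DM2 quenched FRET peptide as substrate; EDANS fluorescence gain as the protease cuts the substrate; inhibitor potency against ADAM10 proteolytic activity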
[25] = target: Disintegrin and metalloproteinase domain-containing protein 17 (Homo sapiens, UniProt P78536); test: inhibition of ADAM17 substrate cleavage – biochemical, quenched FRET substrate, counter-screen for ADAM10 exosite inhibitor project, dose response (AID 743253)
[26] = target: Fatty acid synthase (Homo sapiens, UniProt P49327); test: inhibition of human FAS-TE enzyme activity – biochemical, endpoint fluorescence intensity, powder samples, SAR follow-up (AID 652164); assay type: functional
[27] = HEK293T viability loss – cell-based, ATP luminescence, dry powder, Set6, cytotoxicity control, dose response (AID 743142); assay type: functional; settings: HEK293
[28] = viability loss in A549 lung cancer cells – cell-based, CellTiter-Glo luminescence, dry powder, set 3, cytotoxicity control, dose response (AID 743146); assay type: functional
[29] = target: T4, Aspartyl aminopeptidase (Plasmodium falciparum 3D7, UniProt Q8I2J3)
T4 sequence (Q8I2J3 whole entry): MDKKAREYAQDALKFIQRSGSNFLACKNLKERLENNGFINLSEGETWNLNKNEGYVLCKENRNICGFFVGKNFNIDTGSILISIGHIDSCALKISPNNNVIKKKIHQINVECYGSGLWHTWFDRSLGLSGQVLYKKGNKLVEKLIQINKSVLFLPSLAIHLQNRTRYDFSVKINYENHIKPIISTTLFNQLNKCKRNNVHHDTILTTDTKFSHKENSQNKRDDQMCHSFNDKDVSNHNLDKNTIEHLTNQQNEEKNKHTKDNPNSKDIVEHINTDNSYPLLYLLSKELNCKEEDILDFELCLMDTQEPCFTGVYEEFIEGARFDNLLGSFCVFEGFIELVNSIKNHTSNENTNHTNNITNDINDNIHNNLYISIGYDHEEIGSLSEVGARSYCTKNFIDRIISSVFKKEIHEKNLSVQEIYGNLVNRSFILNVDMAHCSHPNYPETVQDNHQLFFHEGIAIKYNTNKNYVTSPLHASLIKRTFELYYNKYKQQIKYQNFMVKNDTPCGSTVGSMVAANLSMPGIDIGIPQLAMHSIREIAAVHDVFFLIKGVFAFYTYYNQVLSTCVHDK

[30] = target: Procathepsin L (Homo sapiens, UniProt P07711)
[31] = non-specific 3'UTR reporter inhibition in Clone20-Shn3RL – cell-based, Renilla luciferase, cherry-picked, counter-screen for Shn3 inhibitor project, dose response (AID 624133); assay type: functional
[32] = reduced cellular PGC1a acetyl-lysine signal – cell-based, cherry-picked samples, dose response (AID 720514); assay type: functional;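 note: potency may reflect raised or lowered acetylation signal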

Sequence of Fatty acid synthase (P49327 whole entry): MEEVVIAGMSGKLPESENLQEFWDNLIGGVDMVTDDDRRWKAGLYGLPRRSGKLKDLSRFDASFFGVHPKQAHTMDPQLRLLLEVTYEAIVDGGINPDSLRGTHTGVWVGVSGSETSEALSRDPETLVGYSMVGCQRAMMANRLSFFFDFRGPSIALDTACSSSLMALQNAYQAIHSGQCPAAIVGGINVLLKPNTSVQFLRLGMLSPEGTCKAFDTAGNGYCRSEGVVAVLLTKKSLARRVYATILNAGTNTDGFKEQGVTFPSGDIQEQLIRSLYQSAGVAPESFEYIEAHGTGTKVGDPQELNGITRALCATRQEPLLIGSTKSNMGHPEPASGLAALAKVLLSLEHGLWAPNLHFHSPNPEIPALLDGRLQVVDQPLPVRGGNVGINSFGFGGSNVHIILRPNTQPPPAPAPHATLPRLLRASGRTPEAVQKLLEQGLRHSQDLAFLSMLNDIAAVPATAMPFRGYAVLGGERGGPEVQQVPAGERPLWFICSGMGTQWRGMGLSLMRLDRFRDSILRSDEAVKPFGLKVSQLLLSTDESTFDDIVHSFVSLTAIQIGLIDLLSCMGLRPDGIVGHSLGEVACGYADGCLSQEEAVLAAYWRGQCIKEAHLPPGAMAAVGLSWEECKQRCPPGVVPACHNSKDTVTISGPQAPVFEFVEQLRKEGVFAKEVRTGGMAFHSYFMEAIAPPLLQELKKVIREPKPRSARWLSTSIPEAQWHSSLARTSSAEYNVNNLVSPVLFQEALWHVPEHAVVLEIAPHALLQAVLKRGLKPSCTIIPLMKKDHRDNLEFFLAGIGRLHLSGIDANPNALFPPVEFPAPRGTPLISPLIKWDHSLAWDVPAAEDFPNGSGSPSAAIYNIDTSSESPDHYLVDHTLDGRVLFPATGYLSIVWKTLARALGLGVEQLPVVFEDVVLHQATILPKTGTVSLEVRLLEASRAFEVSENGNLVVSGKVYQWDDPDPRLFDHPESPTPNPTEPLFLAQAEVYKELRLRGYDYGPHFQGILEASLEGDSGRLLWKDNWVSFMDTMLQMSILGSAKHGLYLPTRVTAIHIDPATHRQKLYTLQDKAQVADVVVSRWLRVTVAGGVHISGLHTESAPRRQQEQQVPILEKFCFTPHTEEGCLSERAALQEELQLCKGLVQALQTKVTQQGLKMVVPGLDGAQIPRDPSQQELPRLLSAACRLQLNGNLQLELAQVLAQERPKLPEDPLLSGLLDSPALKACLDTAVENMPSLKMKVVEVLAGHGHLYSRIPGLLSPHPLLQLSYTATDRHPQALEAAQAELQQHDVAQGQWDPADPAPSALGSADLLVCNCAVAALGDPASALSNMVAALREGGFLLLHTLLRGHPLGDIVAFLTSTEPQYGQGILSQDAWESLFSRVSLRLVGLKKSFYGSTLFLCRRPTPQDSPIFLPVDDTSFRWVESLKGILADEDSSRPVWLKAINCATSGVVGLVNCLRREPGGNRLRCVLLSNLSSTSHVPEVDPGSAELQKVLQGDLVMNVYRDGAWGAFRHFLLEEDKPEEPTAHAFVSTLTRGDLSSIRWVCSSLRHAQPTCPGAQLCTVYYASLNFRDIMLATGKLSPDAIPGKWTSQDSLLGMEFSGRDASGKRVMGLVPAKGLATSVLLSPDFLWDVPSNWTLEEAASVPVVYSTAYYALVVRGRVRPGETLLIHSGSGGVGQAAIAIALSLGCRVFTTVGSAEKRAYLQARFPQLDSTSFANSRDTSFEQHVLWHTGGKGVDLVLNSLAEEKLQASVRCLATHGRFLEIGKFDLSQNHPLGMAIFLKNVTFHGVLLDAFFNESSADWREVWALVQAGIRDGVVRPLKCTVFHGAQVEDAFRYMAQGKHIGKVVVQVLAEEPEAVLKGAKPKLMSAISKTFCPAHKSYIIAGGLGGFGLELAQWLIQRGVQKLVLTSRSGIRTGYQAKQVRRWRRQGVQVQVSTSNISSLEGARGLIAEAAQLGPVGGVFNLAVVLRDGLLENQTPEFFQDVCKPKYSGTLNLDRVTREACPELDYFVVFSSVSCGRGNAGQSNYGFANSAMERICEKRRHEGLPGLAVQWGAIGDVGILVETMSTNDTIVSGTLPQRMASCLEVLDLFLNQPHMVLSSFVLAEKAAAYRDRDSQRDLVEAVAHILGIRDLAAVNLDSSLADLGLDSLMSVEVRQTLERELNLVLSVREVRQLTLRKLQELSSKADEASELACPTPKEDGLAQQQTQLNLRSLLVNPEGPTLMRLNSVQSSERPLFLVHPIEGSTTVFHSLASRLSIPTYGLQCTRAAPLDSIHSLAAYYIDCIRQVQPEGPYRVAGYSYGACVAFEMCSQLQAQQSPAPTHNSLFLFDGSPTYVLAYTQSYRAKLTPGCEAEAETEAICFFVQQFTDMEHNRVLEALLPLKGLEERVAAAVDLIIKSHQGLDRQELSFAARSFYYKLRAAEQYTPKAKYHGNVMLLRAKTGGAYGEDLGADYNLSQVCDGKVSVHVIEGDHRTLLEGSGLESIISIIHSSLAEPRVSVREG
Sequence of 5-hydroxytryptamine receptor 2A (P35363 whole entry): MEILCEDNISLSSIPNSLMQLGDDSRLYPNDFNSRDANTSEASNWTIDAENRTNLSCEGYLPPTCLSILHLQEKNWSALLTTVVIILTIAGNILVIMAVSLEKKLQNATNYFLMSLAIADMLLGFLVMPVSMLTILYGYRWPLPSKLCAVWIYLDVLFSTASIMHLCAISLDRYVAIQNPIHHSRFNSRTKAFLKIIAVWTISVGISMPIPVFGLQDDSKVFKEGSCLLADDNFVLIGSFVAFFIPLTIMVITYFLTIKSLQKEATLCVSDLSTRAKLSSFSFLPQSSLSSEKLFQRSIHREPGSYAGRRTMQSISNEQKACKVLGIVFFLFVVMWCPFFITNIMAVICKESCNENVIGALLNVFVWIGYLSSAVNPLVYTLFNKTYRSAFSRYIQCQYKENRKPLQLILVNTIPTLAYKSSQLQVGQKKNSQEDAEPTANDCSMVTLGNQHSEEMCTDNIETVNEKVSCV
Sequence of Protein disulfide-isomerase (P07237 whole entry): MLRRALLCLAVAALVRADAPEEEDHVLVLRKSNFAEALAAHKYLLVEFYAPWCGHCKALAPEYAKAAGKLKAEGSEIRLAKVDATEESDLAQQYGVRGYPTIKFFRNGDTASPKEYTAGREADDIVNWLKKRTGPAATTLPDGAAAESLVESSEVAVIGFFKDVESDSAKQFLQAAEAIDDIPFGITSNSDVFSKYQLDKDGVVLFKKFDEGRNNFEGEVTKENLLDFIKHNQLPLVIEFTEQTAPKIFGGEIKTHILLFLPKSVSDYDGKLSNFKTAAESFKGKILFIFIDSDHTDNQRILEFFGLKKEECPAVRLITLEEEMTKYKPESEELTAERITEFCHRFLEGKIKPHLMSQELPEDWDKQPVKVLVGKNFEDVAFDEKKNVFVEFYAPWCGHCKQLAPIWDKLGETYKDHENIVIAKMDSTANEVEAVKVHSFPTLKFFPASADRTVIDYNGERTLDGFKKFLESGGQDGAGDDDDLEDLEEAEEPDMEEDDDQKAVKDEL
Sequence of Disintegrin and metalloproteinase domain-containing protein 17 (P78536 whole entry, the tested form may be a part): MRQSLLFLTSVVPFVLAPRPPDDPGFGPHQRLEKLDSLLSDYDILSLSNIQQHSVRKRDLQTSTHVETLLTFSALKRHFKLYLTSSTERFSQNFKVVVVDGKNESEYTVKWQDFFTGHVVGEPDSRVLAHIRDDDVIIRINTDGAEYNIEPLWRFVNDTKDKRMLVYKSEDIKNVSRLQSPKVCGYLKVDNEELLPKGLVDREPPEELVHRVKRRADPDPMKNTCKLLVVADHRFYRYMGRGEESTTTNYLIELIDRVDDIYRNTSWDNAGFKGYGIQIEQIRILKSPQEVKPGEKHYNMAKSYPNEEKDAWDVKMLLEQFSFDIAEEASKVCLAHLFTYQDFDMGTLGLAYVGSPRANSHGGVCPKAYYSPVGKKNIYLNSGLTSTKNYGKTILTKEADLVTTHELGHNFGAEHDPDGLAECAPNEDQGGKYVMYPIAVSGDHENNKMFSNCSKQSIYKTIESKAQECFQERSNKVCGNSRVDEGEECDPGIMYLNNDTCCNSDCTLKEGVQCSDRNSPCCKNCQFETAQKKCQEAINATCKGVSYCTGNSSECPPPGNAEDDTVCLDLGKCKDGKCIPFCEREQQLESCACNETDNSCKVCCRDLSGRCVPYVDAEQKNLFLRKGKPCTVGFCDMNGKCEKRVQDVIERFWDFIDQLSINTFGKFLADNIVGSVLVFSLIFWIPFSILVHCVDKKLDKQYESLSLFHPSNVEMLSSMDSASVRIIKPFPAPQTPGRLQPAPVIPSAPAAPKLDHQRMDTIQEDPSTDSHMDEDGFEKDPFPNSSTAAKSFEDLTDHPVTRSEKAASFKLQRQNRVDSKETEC
Sequence of Melanocortin receptor 4 (P32245 whole entry): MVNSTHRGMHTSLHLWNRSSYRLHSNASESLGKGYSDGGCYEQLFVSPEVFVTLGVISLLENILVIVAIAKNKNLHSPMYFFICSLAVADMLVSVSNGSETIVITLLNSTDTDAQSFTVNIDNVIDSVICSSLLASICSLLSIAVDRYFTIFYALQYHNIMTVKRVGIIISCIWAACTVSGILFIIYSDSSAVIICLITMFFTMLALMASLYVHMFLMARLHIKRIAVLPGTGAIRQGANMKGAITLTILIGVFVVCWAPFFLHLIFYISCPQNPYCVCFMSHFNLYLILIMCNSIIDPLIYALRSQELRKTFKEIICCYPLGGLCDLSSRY
Sequence of Mu-type opioid receptor (P35372 whole entry): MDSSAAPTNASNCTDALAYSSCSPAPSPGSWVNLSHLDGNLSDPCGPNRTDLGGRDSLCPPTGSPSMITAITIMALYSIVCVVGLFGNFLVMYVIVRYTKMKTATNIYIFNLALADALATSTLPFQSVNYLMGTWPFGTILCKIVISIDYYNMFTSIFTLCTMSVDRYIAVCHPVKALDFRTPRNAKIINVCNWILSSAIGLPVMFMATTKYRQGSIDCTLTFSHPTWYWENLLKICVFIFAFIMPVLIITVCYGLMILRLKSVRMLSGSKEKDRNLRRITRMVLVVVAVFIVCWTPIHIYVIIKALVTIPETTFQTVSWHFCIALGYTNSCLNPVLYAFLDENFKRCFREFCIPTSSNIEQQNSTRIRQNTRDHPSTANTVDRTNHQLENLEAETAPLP

## COc1ccc(OC)c(NC(=O)CN(Cc2ccc(F)cc2)C2CCCCC2)c1
[1]
  AC50: 4.33 µM (active)
[2]
  AC50: 4.99 µM (active)
[3]
  AC50: 50.8 µM (active)
[4]
  AC50: 6.54 µM (active)
[5]
  AC50: 34.6 µM (active)

## CN(C)CCNC(=O)c1cccc(-c2cc(NC=O)c3ncc(-c4cccc(C(F)(F)F)c4)n3c2)c1
[6]
  EC50: > 89.2 µM (inactive)
[7]
  EC50: > 91.2 µM (inactive)
[8]
  EC50: > 91.2 µM (inactive)
[9]
  AC50: 4.34 µM (active)

## CCOC(=O)C1=CCN(Cc2ccccc2)CC1
[10]
  EC50: 92.5 µM (inactive)
[11]
  EC50: 5.35 µM (active)

## N=c1oc2cc(O)ccc2cc1C(=O)Nc1ccc(Br)cc1
[12]
  CC50: 23.7 µM (active)
[13]
  AC50: > 52 µM (inactive)
[14]
  AC50: > 52 µM (inactive)

## Cc1cc(NC(=O)c2cncc(Br)c2)ccc1NC(=O)c1cc2ccccc2o1
[15]
  AC50: 10.4 µM (active)
[16]
  EC50: > 54.7 µM (inactive)
[17]
  EC50: > 54.7 µM (inactive)
[18]
  AC50: 26.2 µM (active)
[19]
  IC50: 5.63 µM (active)
[20]
  EC50: > 55.9 µM (inactive)
[6]
  EC50: > 89.2 µM (inactive)
[21]
  AC50: 15.4 µM (active)

## CCOC(=O)C1CCN(C(=O)OC(C)(C)C)CC1
[22]
  AC50: > 30 µM (inactive)

## O=C(Cc1ccc(Cl)cc1)NC1CCCC1
[23]
  AC50: > 70 µM (inactive)

## C=CCC[C@@H](Cc1ccc(F)cc1)C(=O)O[C@H](CNC(=O)[C@H](CC=C)CC(=O)N(CCO)Cc1ccccc1)c1ccccc1
[24]
  IC50: 12.2 µM (inactive)
[25]
  IC50: > 69.5 µM (inactive)

## Cc1nc2scc(C)n2c(=O)c1S(=O)(=O)Nc1ccc(N2CCOCC2)c(Cl)c1
[2]
  AC50: 1.67 µM (active)
[4]
  AC50: 2.04 µM (active)
[5]
  AC50: 38.3 µM (active)

## Cc1c(C(=O)NCc2cccc([N+](=O)[O-])c2)sc(=O)n1Cc1cccc(F)c1
[13]
  AC50: 48.4 µM (active)

## CCN(CC)S(=O)(=O)c1ccc(-c2csc(NC(=O)C3CCCC3)n2)cc1
[26]
  IC50: 1.18 µM (active)

## CCc1nc2ccc(C(=O)Nc3ccc(OC)c(OC)c3)cn2c1N(CC)Cc1cccc(Br)c1
[24]
  IC50: > 69.5 µM (inactive)
[25]
  IC50: > 69.5 µM (inactive)

## N#Cc1ccc(C(=O)NCCC(=O)N[C@@H]2CCCc3ccccc32)cc1
[27]
  AC50: 17.1 µM (active)
[28]
  AC50: > 52 µM (inactive)

## CNC[C@H](O)c1ccc(O)c(O)c1 [EPINEPHRINE BITARTRATE]
[29]
  IC50: 3.01 µM (active)
[30]
  IC50: > 59.6 µM (not active)
[11]
  EC50: 0.586 µM (active)

## CCC(=O)Nc1nc(-c2ccc(S(=O)(=O)N(C)C)cc2)cs1
[26]
  IC50: 1.08 µM (active)

## CCOC(=O)C1(CCOc2ccccc2)CCN(Cc2ccc(OC)cc2)CC1
[22]
  AC50: > 30 µM (inactive)

## O=C(CCNC(=O)c1ccc2c(c1)OC(F)(F)O2)N[C@@H]1CCCc2ccccc21
[27]
  AC50: 7.51 µM (active)
[28]
  AC50: > 52 µM (inactive)

## COc1cc(NC(=O)NCc2ccco2)ccc1-c1ccc(NC(=O)NCc2ccco2)cc1OC
[2]
  AC50: 3.19 µM (active)
[3]
  AC50: > 70 µM (inactive)
[31]
  AC50: 10.3 µM (active)
[21]
  AC50: > 52 µM (inactive)
[32]
  AC50: 14 µM (active)
